Results published in patent US6379959B1, “Metalocarboxypeptidase inhibitors and derived molecules used as antitumor agents” (Universitat Autonoma de Barcelona, priority 1996, dated 2002).
Like-named read-outs stand apart in the source and are kept apart here.

Experiments:
[1] = test system: human pancreatic adenocarcinoma cell line Panc-1; type: cell-based; details: SFM, 72 h
Description: The tests that were carried out growing in free bovine fetal serum medium were very similar to those used in the line Capan-1 described in Section 4.B.2.b. The protocol employed is as follows:
1. A culture plate with 96 wells, in 42 of which 5,000 cells were seed per well. The cells were placed in full medium (RPMI+10%FBS).
2. After 48 h, after the cells had adhered to the surface of the well and they had divided as well, the medium was drained from the wells and to eliminate the rest of the serum, 200 μL of PBS were added to each well.
3. The PBS was removed and 200 μL of RPMI-FBS were added.
4. After 48 h, the medium was removed and the following treatments were applied:
(§1) In 6 wells (control): 200 μL of serum-free medium (SFM) were added.
In 6 wells, 200 μL of SFM plus the indicated concentration of one of the growth factors and wtPCI at a final concentration of 50 μg/mL were added.
In 6 wells, 200 μL of SFM plus the indicated concentration of one of the growth factors and PCIdelYVG at a final concentration of 46 μg/mL were added.
In 6 wells, 200 μL of SFM plus the indicated concentration of one of the growth factors and tail at a final concentration of 6.4 μg/mL were added.
In 6 wells, 200 μL of SFM plus the indicated concentration of one of the growth factors and wtPCI at a final concentration of 50 μg/mL combined with tail at a final concentration of 6.4 μg/mL were added.
In 6 wells, 200 μL of SFM plus the indicated concentration of one of the growth factors and PCIdelYVG at a final concentration of 46 μg/mL combined with tail at a final concentration of 6.4 μg/mL were added.
The cells were kept in an incubator at 37° C., 87% of relative humidity and 10% of CO2.
5. After 72 h, the cell growth per well was evaluated using the method detailed in the protocol of Section 4.B.2.a.

[2] = test system: human pancreatic adenocarcinoma cell line Capan-1; type: cell-based; details: SFM, 72 h
Description: Other kinds of tests were also carried out, the cells growing in serum-free medium as well; these were studies at short periods of time, 72 h, and of competitiveness with a growth factor plus wtPCI, PCIdelYVG or tail. […] The protocol employed was as follows:
1. In a culture plate of 96 wells, in 42 of which 5,000 cells per well were seed. The cells were placed in full medium (DMEM+10%FBS).
2. After 72 h, once the adhesion of the cells to the surface of the well had taken place, as well as their division, the medium was removed from the wells and to eliminate the remainder of the serum, 200 μL of PBS were added to each well.
3. The PBS was removed and 200 μL of DMEM-FBS were added.
4. After 24 h, the medium was removed and the following treatments were applied:
as §1
200 μL of SFM plus the indicated concentration of one of the growth factors and wtPCI were added in 6 wells at a final concentration of 50 μg/mL.
In 6 wells, 200 μL of SFM plus the indicated concentration of one of the growth factors and PCIdelYVG were added at a final concentration of 46 μg/mL. […]
4. Cells were kept in an incubator at 37° C., 87% of relative humidity and 10% of CO2.
5. After 72 h, the cellular growth per well was evaluated using the method detailed in the protocol of Section 4.B.2.a.

carboxypeptidase = target: T1, carboxypeptidase (Bos taurus, UniProt P00730); experiment: Carboxypeptidase inhibiting effect; type: biochemical
T1 sequence (P00730 111-419): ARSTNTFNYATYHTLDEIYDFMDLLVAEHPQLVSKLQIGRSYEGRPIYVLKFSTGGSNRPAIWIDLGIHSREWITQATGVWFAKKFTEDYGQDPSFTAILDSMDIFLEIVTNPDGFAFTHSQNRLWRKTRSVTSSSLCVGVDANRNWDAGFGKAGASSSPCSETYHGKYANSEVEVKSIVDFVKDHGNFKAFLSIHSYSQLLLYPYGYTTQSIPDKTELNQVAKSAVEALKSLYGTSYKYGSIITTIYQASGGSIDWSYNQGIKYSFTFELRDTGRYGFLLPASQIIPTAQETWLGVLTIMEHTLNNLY
Description: All the buffers employed in HPLC and FPLC are prepared employing Mono-Q water and are filtered through membranes of 0.22 μm and degassed immediately before use. The HPLC, as well as the FPLC, are done at room temperature. The process of purification is done by determining the global concentration of proteins after each step using the Bradford method; the concentration of recombinant PCI is evaluated by measuring its inhibitory effect of CPA using appropriate blanks; or, in the case of PCI mutants with little or zero carboxypeptidase activity, by ELISA with rabbit polyclonal antibodies against PCI.
To determine whether the inhibiting effect on cellular growth of the PCI is related to its carboxypeptidase inhibiting effect or with its specific knotin topology, tests of cellular inhibition with a mutant form were carried out. Concretely, the deletion of the three C-terminal amino acids was designed resulting in the form PCIdelY37V38G39 (or PCIdelYVG). This form was designed and constructed because it keeps the structure and the topology of wild PCI. This is inferred from the fact that it presents a similar chromatographic behaviour to that of the wild form and that it can be detected by antibodies antiwtPCI. Also by means of computer simulation (by molecular dynamics using the GROMOS programme) it presented a similar behaviour to the wild form after 300 ps of dynamics.

[3] = test system: human pancreatic adenocarcinoma cell line Panc-1; type: cell-based; details: SFM, 72 h; remark: listed apart in the source
[4] = test system: human pancreatic adenocarcinoma cell line Capan-1; details: serum-free medium, 16 days
Description: Two kinds of tests were carried out; the first one is the treatment of cells of the human pancreatic adenocarcinoma cell line Capan-1 with wtPCI and tail added to the culture medium in absence of serum.
In a culture plate with 96 wells, 5,000 cells were seed per well, in 24 of them. The cells were placed in full medium (DMEM+10%FBS).
In 6 wells (control): 200 μL of serum-free medium (DMEM-FBS) and free of tail were added.
200 μL of serum-free medium with 50 μg/mL of native PCI were added.
In 6 wells, 200 μL of serum-free medium with 0.128 μg of tail/mL were added.
In 6 wells, serum-free medium with 6.4 μg of tail/mL was added.
The medium contained in the wells was changed every 3-4 days. The old medium was sucked out using a Pasteur pipette.
After 16 days, the cell growth per well was evaluated according to the method detailed in the protocol of Section 4.B.2.a.

[5] = test system: human pancreatic adenocarcinoma cell line Capan-1; experiment: Apoptosis by DAPI labeling and fluorescence microscope; type: cell-based; details: positive control, 10 μg/mL, 24 h
Description: The studies of possible induction of apoptosis by the PCI were done with the human pancreatic adenocarcinoma cell line Capan-1. The detailed procedure that was employed is as follows:
1. 5×10^5 cells were seed in the chambers/slides and were cultured for 3 o 4 days (until the moment in which, through microscope observation, they presented 75% of confluence). The cells were cultured in DMEM+10% FBS.
2. […] A positive control was added, cysplatinum, at a concentration of 10 μg/mL (a drug which induces apoptosis in various tumor cell lines, Borner, M. M., et al. (1995) Cancer Res., 55: 2122-2128. The incubation period was 24 h.
3. The medium was removed after incubation and the chamber was washed with 2 mL of PBS.
5. Cells were fixed with 2 mL of 2% formaldehyde for 20 min at 4° C.
6. The plates were washed again with 2 mL of PBS for 5 min at room temperature.
7. Cell membranes were permeabilized with 0.25% Triton ×100 in PBS for 5 min at 4° C.
8. Washed with PBS for 5 min at room temperature.
9. The cells were labeled with DAPI at a final concentration of 2 μg/mL for 50 min in darkness at room temperature.
10. The preparation was fitted with the fluoroprep medium and it was examined through the fluorescence microscope.
% apoptosis=(number of apoptotic cells/total number of cells)×100

Panc-1 cells = experiment: Internalization studies by means of fluorescence (RITC labeling), Panc-1; type: cell-based, human; details: accumulation around the nucleus
Description: In fluorescence studies, the possible internalization of PCI, labeled with a fluorophore, by Capan-1 and Panc-1 cell lines was followed by microscope observation.
In the incorporation studies of the RITC-PCI, the protocol of Billings, P. C. et al. (1989) Carcinogenesis, 10: 687-691, slightly modified, was followed:
1. 200,000 cells of the cell line to be studied were placed in culture chambers/slides and were left there to grow for 48 h.
2. The medium of the cells growing in exponential phase was changed and 20 or 50 μg/mL of RITC-PCI were added to the new medium, keeping it in the medium for a variable incubation time ranging from 1 minute to 4 h inside the incubator.
3. The medium was retired after the incubation and the monolayer of the cells was washed with PBS for 10 min in darkness.
4. The cells were fixed with 350 μl of a solution 50% methanol—50% acetone for 8 min at 4° C. in a dark and humid chamber.
5. The cells were washed again with PBS for 10 min in darkness.
6. The preparations were dried with absorbing paper being very careful not to touch the cells. The preparations were fitted with PBS: Glycerol (1:1) and were sealed with nail polish.
The labeling protocol was exactly the same as that of the wild PCI, as described in Section 4.F.1.b. The studies of incorporation of the labeled mutant were carried out as described in Section 4.F.1.c.

[6] = test system: human pancreatic adenocarcinoma cell line Panc-1; experiment: Proliferation test with tetrazolium salts, Panc-1 in medium with serum, 10 days; type: cell-based
Description: It was performed the same kind of test which had been carried out for the Capan-1 cell line but with Panc-1, another human pancreatic adenocarcinoma cell line. We are referring to a human pancreatic adenocarcinoma ATCC nr. CRL 1469, established by Lieber, M. et al. (1975) In. J. Cancer, 15: 741-747. Of ductal origin, it is not highly differentiated.
As for the Capan-1 cell line, two types of experiments were carried out with and without bovine fetal serum. The protocol followed for the test, growing in RPMI plus bovine fetal serum, was the same as that used with Capan-1 cell line but with small variations, given the difference in the duplication times between the two lines. The tests were carried out with the native PCI (wtPCI) and with the mutant PCI (PCIdelYVG). The protocol is detailed as follows:
1. In a culture plate with 96 wells, 2,000 cells were seed in 30 wells for the tests with wtPCI and in 36 for the tests with PCIdelYVG. From these 30 or 36:
In 6 wells (control), 200 μL of full medium (RPMI+10%FBS) without wtPCI or PCIdelYVG/mL were added. […]
2. The cells were kept in an incubator at 37° C., 87% of relative humidity and 10% of CO2. The old medium was sucked out with a Pasteur pipette. Medium free of wtPCI or PCIdelYVG was added to the control wells and to the others a medium was added with identical concentration of wtPCI or PCIdelYVG.
3. After 10 days, the cell growth was evaluated per well, according to the method detailed in the protocol of Section 4.B.2.a.

[7] = Insulina 5 mg/mL + 6.4 mg/mL tail
[8] = EGF 10 ng/mL + 46 mg/mL PCIdelYVG
[9] = Insulin 5 mg/mL + 46 mg/mL PCIdelYVG

## IGF-1: growth factor 1 of the insulin type [reference compound]
[1]; IGF-1 alone (20 ng/mL)
  stimulation in relation to control: 26%
[2]; IGF-1 alone (20 ng/mL)
  stimulation in relation to the control: 58%

## H-GPYVG-OH [tail, H-Gly-Pro-Tyr-Val-Gly-OH]
carboxypeptidase
  carboxypeptidase inhibitory activity: lacks carboxypeptidase inhibitory activity
[3]; EGF 10 ng/mL + 6.4 mg/mL tail
  Growth (Percentage in relation to the average of the controls): 16.23%
[3]; [7]
  Growth (Percentage in relation to the average of the controls): 24.84%
[4]; 0.128 mg/mL tail
  Growth (Percentage in relation to the average of the controls): 81.95%
[4]; 6.4 mg/mL tail
  Growth (Percentage in relation to the average of the controls): 77%
[2]; EGF 10 ng/mL + 6.4 mg/mL tail
  Growth (Percentage in relation to the average of the controls): 28.33%
[2]; [7]
  Growth (Percentage in relation to the average of the controls): 52.58%

## N.N.[Cl][Pt][Cl] [cysplatinum, reference compound]
[5]
  % Apoptosis: 5.19%

## EGF: epidermic growth factor [reference compound]
[1]; EGF 10 ng/mL alone
  Growth (Percentage in relation to the average of the controls): 63.52%
[1]; EGF alone, in the tested concentration (10 ng/mL)
  inhibition in relation to the control situation: 36%
[2]; EGF 10 ng/mL alone
  Growth (Percentage in relation to the average of the controls): 106.66%
[2]; EGF alone, at the tested concentration (10 ng/mL)
  growth in relation to the control situation: no differences in relation to the control situation

## Insulin: growth factor used to stimulate proliferation [reference compound]
[1]; Insulin 5 mg/mL alone
  Growth (Percentage in relation to the average of the controls): 193.47%
[1]; insulin alone (5 μg/mL)
  stimulation in relation to control: 93%
[2]; Insulin 5 mg/mL alone
  Growth (Percentage in relation to the average of the controls): 292.86%
[2]; insulin alone (5 μg/mL)
  stimulation in relation to the control: 193%

## PCIdelYVG: recombinant PCI mutant with deletion of the three C-terminal amino acids Tyr-Val-Gly (EQHADPICNKPCKTHDDCSGAWFCQACWNSARTCGP; Potato; (1)..(39) Isoform IIa of the potato carboxypeptidase inhibitor)
carboxypeptidase
  Ki: micromolar level
carboxypeptidase; compared with wild PCI
  decrease of the inhibitory capacity: 3 orders of magnitude
Panc-1 cells
  incorporation of RITC-labeled mutant by the cells: is incorporated by the cells
[6]; 46 μg/mL concentration
  inhibition of the growth: 15%
[6]; 0.092 mg/mL PCIdelYVG, RPMI+10%FBS
  Growth (Percentage in relation to the average of the controls): 112.92%
[6]; 0.92 mg/mL PCIdelYVG
  Growth (Percentage in relation to the average of the controls): 105.43%
[6]; 23 mg/mL PCIdelYVG
  Growth (Percentage in relation to the average of the controls): 94.85%
[6]; 46 mg/mL PCIdelYVG
  Growth (Percentage in relation to the average of the controls): 85.51%
[6]; concentration 0.092 μg/mL
  stimulus of the growth: 13%
[3]; [8]
  Growth (Percentage in relation to the average of the controls): 5.53%
[3]; [9]
  Growth (Percentage in relation to the average of the controls): 21.41%
[2]; [8]
  Growth (Percentage in relation to the average of the controls): 40.83%
[2]; [9]
  Growth (Percentage in relation to the average of the controls): 44.60%
